How the values were obtained:
rhesus monkeys = assay: Diabetes model prepared by low dose STZ induction; assay type: in vivo, rhesus monkey
Experimental: Low dose of STZ was administered intravenously for 5 consecutive days, at a dose of 15-30 mg/kg per time; and administrated again on the 7th day and 14th day after last administration. Fasting glucose was observed once each week.
6 rhesus monkeys were used to prepare models according to the method of the present invention and 4 models were successfully prepared. […]

[1] = tested on: rhesus monkey model of autoimmune type 1 diabetes; assay: Insulin treatment of the rhesus monkey model of autoimmune type 1 diabetes; assay type: in vivo
Experimental: At present, insulin injection is the main treatment method of autoimmune type 1 diabetes. Insulin was applied to the rhesus monkey model of autoimmune type 1 diabetes in this experiment. The specific way was as follows:
1. According to the habit of eating twice per day of rhesus monkeys, different types of insulin were injected twice a day (9:30 am & 17:30 pm) in different doses, applied to the autoimmune type 1 diabetes model prepared by Example 1 of the present invention: combined treatment of (1) long-acting insulin: porcine insulin (protamine zinc insulin) produced by Wanbang Company (Xuzhou, China) and (2) short-acting insulin: ordinary porcine insulin produced by Wanbang Company (Xuzhou, China).
2. Initially, low dose of insulin (0.4 U/kg) was injected subcutaneously so as to avoid the occurrence of low blood glucose.
3. The fasting and postprandial glucose levels were monitored. The administration dosage was adjusted according to the blood glucose level, finally allowing the fasting and postprandial blood glucose to be less than 10 mmol/L and glycosylated hemoglobin to be less than 6.5%.

[2] = established model after low dose STZ i.v.
[3] = insulin s.c. twice a day, start 0.4 U/kg, dosage adjusted to blood glucose

Compound: CN(N=O)C(=O)N[C@@H](C=O)[C@@H](O)[C@H](O)[C@H](O)CO [STZ, Streptozotocin]
- fasting blood glucose, fluctuation (rhesus monkeys; after intravenous injection of STZ, 20 or 25 mg/kg per time, days 1-5, 12, 19): 3.2 to 17.6 mmol/L
- fasting blood glucose, consistently (rhesus monkeys; [2]): higher than 11.1 mmol/L
- serum C-peptide (rhesus monkeys; [2]): less than 0.3 nM
- glucagon expression-positive cells in the islet tissue (rhesus monkeys; immunohistochemistry, FIG. 3B): above 90%
- models successfully prepared (rhesus monkeys; of 6 rhesus monkeys): 4

Compound: Insulin: combined treatment of long-acting porcine insulin (protamine zinc insulin) and short-acting ordinary porcine insulin, Wanbang Company
- fasting and postprandial blood glucose [1, 3]: less than 10 mmol/L
- glycosylated hemoglobin [1, 3]: less than 6.5%
- therapeutic effect on autoimmune type 1 diabetes ([1]; long-acting plus short-acting porcine insulin): better therapeutic effect

Reference: patent US9186421B2, “Establishment of rhesus monkey model of autoimmunity type 1 diabetes” (West China Hospital, Sichuan University, priority 2010, dated 2015)
